What all share (assay type): in vivo
In one test the test system is Musca domestica. The test can be described thus: Filter paper/sucrose bait death rate test on Musca domestica (Test Example 5). The note with it: female imagoes of Musca domestica, 0.7 ml on filter paper, after 24 hours. The procedure: A filter paper having a diameter of 5.5 cm was spread on the bottom of a polyethylene cup having the same diameter and 0.7 ml of the test drug solution was added dropwise onto the filter paper, and 30 mg of sucrose was uniformly placed as bait.
Into the polyethylene cup, 10 female imagoes of Musca domestica were released, and the cup was sealed with a lid. After 24 hours, the life and death of Musca domestica was examined, and the death rate was calculated. The death rate was calculated by the following equation.
Death rate (%)=(Number of dead insects/Number of tested insects)×100

The next test deals with Blattella germanica. The test can be described thus: Knockdown spray test on Blattella germanica, 0.1% w/v oil formulation (Test Example 2). The note with it: topical, 0.25 h, active ingredient 0.1% w/v, 1.5 ml sprayed, within 15 minutes, read-out: knockdown rate of the test insects within 15 minutes. As to the method: Ten Blattella germanica (5 males and 5 females) were released in a test container (8.75 cm in diameter, 7.5 cm in height, and the bottom made of 16 mesh metallic wire) with the inner wall on which butter was applied, and the container was placed on the bottom of a test chamber (bottom: 46 cm×46 cm, height: 70 cm). From a height of 60 cm above the upper surface of the container, 1.5 ml of the test drug solution was sprayed using a spray gun (a spraying pressure of 0.42 kg/cm^2). Thirty seconds after spraying, the container was taken out from the test chamber, and after 2 minutes, 5 minutes and 15 minutes, the number of knocked-down insects was counted to obtain a knockdown rate. The knockdown rate was calculated by the following equation.
Knockdown Rate (%)=(Number of Knocked-down Insects/Number of Tested Insects)×100

Another test relates to Culex pipiens pallens. The test can be described thus: Knockdown spray test on adult Culex pipiens pallens (Test Example 4). The note with it: topical, 0.25 h, active ingredient 0.1% w/v, 0.5 ml sprayed, within 15 minutes, read-out: knockdown rate of the test insects within 15 minutes. Summed up: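 Knockdown counts were taken 2, 5 and 15 min after spraying and expressed as percent of the 10 adults tested. For the spray, 0.5 ml of solution was applied by spray gun (0.4 kg/cm^2) from 30 cm above a gauze-covered cup in a test chamber; the cup was taken out right after spraying.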

Where only a bound is given, the exact number is not on record here.

In the case of `O=C(NCC1CCOC1)c1cc(COCc2ccccc2Cl)on1` (stereo not shown) [(66), N-(tetrahydrofuran-3-ylmethyl)-5-(2-chlorobenzyloxymethyl)isoxazole-3-carboxamide], the pest or weed control at 500 ppm with Musca domestica was at least 90%. The pest or weed control at 0.1 % strength in the test on Blattella germanica and in the test on Culex pipiens pallens was at least 80% throughout.

Regarding `O=C(NCC1CCOCC1)c1cc(COCc2ccccc2Cl)on1` [(67), N-(tetrahydropyran-4-ylmethyl)-5-(2-chlorobenzyloxymethyl)isoxazole-3-carboxamide], in the test with Musca domestica, the pest or weed control at 500 ppm was at least 90%. Moreover, the pest or weed control at 0.1 % strength in the test on Blattella germanica and with Culex pipiens pallens was at least 80% each time.

`O=C(NCC1CCOC1)c1cc(COCc2cccc(Cl)c2)on1` (stereo not shown) [(68)]: the pest or weed control at 500 ppm in the test on Musca domestica is at least 90%. Further, the pest or weed control at 0.1 % strength with Blattella germanica and in the test on Culex pipiens pallens was at least 80% in each case.

For the compound `Cc1cccc(COCc2cc(C(=O)NCC3CCOC3)no2)c1` (stereo not shown) [(82), N-(tetrahydrofuran-3-ylmethyl)-5-(3-methylbenzyloxymethyl)isoxazole-3-carboxamide], the pest or weed control at 500 ppm in the test on Musca domestica was at least 90%. In addition, the pest or weed control at 0.1 % strength with Blattella germanica and with Culex pipiens pallens was at least 80% each time.

Consider `Cc1c(C(=O)NCC2CCOC2)noc1CCCc1ccccc1` (stereo not shown) [(221), N-(tetrahydrofuran-3-ylmethyl)-4-methyl-5-(3-phenylpropyl)isoxazole-3-carboxamide], for which the pest or weed control at 0.1 % strength in the test with Blattella germanica and in the test on Culex pipiens pallens was at least 80% throughout.

With `Cc1ccccc1COCc1cc(C(=O)NCC2CCOC2)no1` (stereo not shown) [(226)], the pest or weed control at 0.1 % strength with Blattella germanica and in the test on Culex pipiens pallens was at least 80% each time.

Turning to `O=C(NCC1CCOC1)c1cc(CCCc2ccc3ccccc3c2)on1` (stereo not shown) [(228), N-(tetrahydrofuran-3-ylmethyl)-5-[3-(2-naphthyl)propyl]isoxazole-3-carboxamide], the pest or weed control at 0.1 % strength with Blattella germanica and with Culex pipiens pallens was at least 80% each time.

For the compound `O=C(NCC1COCCO1)c1cc(CCCc2ccc3ccccc3c2)on1` (stereo not shown) [(230), N-(1,4-dioxan-2-ylmethyl)-5-[3-(2-naphthyl)propyl]isoxazole-3-carboxamide], the pest or weed control at 0.1 % strength in the test on Blattella germanica and with Culex pipiens pallens was at least 80% in each case.

Turning to `O=C(NCC1CCOC1)c1cc(COc2ccc3c(c2)CCCC3)on1` (stereo not shown) [(239), N-(tetrahydrofuran-3-ylmethyl)-5-(5,6,7,8-tetrahydronaphthalen-2-yl)oxymethylisoxazole-3-carboxamide], the pest or weed control at 0.1 % strength with Blattella germanica and with Culex pipiens pallens was at least 80% throughout.

Consider `O=C(NCC1CCOC1)c1cc(CSCc2ccc3ccccc3c2)on1` (stereo not shown) [(253)], for which the pest or weed control at 0.1 % strength with Blattella germanica and in the test on Culex pipiens pallens was at least 80% in each case.

As for `O=C(NCC1CCOC1)c1noc(COCc2ccc3ccccc3c2)c1F` (stereo not shown) [(255), N-(tetrahydrofuran-3-ylmethyl)-5-(2-naphthylmethoxymethyl)-4-fluoroisoxazole-3-carboxamide], the pest or weed control at 0.1 % strength in the test with Blattella germanica and with Culex pipiens pallens was at least 80% each time.

With `O=C(NCC1CCOC1)c1cc(COCc2cc3ccccc3cc2F)on1` (stereo not shown) [(257), N-(tetrahydrofuran-3-ylmethyl)-5-(3-fluoro-2-naphthylmethoxymethyl)isoxazole-3-carboxamide], the pest or weed control at 0.1 % strength with Blattella germanica and in the test with Culex pipiens pallens was at least 80% throughout.

In the case of `O=C(NCC1CCOC1)c1cc(COCc2ccc(F)c(Cl)c2)on1` (stereo not shown) [(261), N-(tetrahydrofuran-3-ylmethyl)-5-(3-chloro-4-fluorobenzyloxymethyl)isoxazole-3-carboxamide], the pest or weed control at 0.1 % strength in the test on Blattella germanica and in the test with Culex pipiens pallens was at least 80% each time.

Turning to `O=C(NCC1CCOC1)c1cc(COCc2ccc(F)c(F)c2)on1` (stereo not shown) [(263), N-(tetrahydrofuran-3-ylmethyl)-5-(3,4-difluorobenzyloxymethyl)isoxazole-3-carboxamide], the pest or weed control at 0.1 % strength with Blattella germanica and in the test on Culex pipiens pallens was at least 80% in each case.

Take `O=C(NCC1CCOC1)c1cc(COCc2ccccc2Br)on1` (stereo not shown) [(265), N-(tetrahydrofuran-3-ylmethyl)-5-(2-bromobenzyloxymethyl)isoxazole-3-carboxamide]: the pest or weed control at 0.1 % strength in the test on Blattella germanica and in the test on Culex pipiens pallens was at least 80% each time.

`Cc1cc(C)cc(COCc2cc(C(=O)NCC3CCOC3)no2)c1` (stereo not shown) [(271), N-(tetrahydrofuran-3-ylmethyl)-5-(3,5-dimethylbenzyloxymethyl)isoxazole-3-carboxamide]: the pest or weed control at 500 ppm in the test with Musca domestica is at least 90%. Moreover, the pest or weed control at 0.1 % strength with Culex pipiens pallens is at least 80%.

In the test on Musca domestica, `O=C(NCC1CCOC1)c1cc(COCc2c(F)cccc2F)on1` (stereo not shown) [(275), N-(tetrahydrofuran-3-ylmethyl)-5-(2,6-difluorobenzyloxymethyl)isoxazole-3-carboxamide] showed a pest or weed control at 500 ppm of at least 90%. Also, in the test with Culex pipiens pallens, the pest or weed control at 0.1 % strength is at least 80%.

For `O=C(NCC1CCOC1)c1cc(COCc2ccc(Cl)c(F)c2)on1` (stereo not shown) [(276), N-(tetrahydrofuran-3-ylmethyl)-5-(4-chloro-3-fluorobenzyloxymethyl)isoxazole-3-carboxamide], the pest or weed control at 0.1 % strength with Blattella germanica and with Culex pipiens pallens was at least 80% throughout.

In the case of `COc1ccc(COCc2cc(C(=O)NCC3CCOC3)no2)cc1F` (stereo not shown) [(277), N-(tetrahydrofuran-3-ylmethyl)-5-(3-fluoro-4-methoxybenzyloxymethyl)isoxazole-3-carboxamide], the pest or weed control at 0.1 % strength in the test on Blattella germanica and with Culex pipiens pallens was at least 80% each time.

Turning to `O=C(NCC1CCOC1)c1noc(COCc2ccccc2F)c1F` (stereo not shown) [(298), N-(tetrahydrofuran-3-ylmethyl)-5-(2-fluorobenzyloxymethyl)-4-fluoroisoxazole-3-carboxamide], the pest or weed control at 0.1 % strength in the test on Blattella germanica and in the test on Culex pipiens pallens was at least 80% each time.

`O=C(NCC1CCOC1)c1cc(Cc2cccs2)on1` (stereo not shown) [(308), N-(tetrahydrofuran-3-ylmethyl)-5-(2-thienylmethyl)isoxazole-3-carboxamide] gave a pest or weed control at 500 ppm in the test with Musca domestica of at least 90%. Further, the pest or weed control at 0.1 % strength in the test on Culex pipiens pallens is at least 80%.

On to `COc1cccc(Cc2cc(C(=O)NCC3CCOC3)no2)c1` (stereo not shown) [(312), N-(tetrahydrofuran-3-ylmethyl)-5-(3-methoxybenzyl)isoxazole-3-carboxamide], for which the pest or weed control at 0.1 % strength in the test with Blattella germanica and in the test on Culex pipiens pallens was at least 80% in each case.

Take `COc1ccccc1Cc1cc(C(=O)NCC2CCOC2)no1` (stereo not shown) [(317), N-(tetrahydrofuran-3-ylmethyl)-5-(2-methoxybenzyl)isoxazole-3-carboxamide]: the pest or weed control at 0.1 % strength in the test with Blattella germanica and in the test with Culex pipiens pallens was at least 80% throughout.

In the case of `O=C(NCC1CCOC1)c1cc(Cc2cccc(-c3ccccc3)c2)on1` (stereo not shown) [(327)], the pest or weed control at 0.1 % strength with Blattella germanica and in the test on Culex pipiens pallens was at least 80% throughout.

On to `Cc1cccc(Cc2cc(C(=O)NCC3CCOC3)no2)c1` (stereo not shown) [(328), N-(tetrahydrofuran-3-ylmethyl)-5-(3-methylbenzyl)isoxazole-3-carboxamide], for which the pest or weed control at 0.1 % strength in the test on Blattella germanica and with Culex pipiens pallens was at least 80% in each case.

On to `Cc1ccc(Cc2cc(C(=O)NCC3CCOC3)no2)cc1` (stereo not shown) [(329), N-(tetrahydrofuran-3-ylmethyl)-5-(4-methylbenzyl)isoxazole-3-carboxamide], for which the pest or weed control at 0.1 % strength with Blattella germanica and in the test on Culex pipiens pallens was at least 80% each time.

Take `CC1(CNC(=O)c2cc(COCc3ccc4ccccc4c3)on2)COC1` [(333), N-(3-methyloxetan-3-ylmethyl)-5-(2-naphthylmethoxymethyl)isoxazole-3-carboxamide]: the pest or weed control at 500 ppm in the test with Musca domestica is at least 90%. In addition, the pest or weed control at 0.1 % strength with Culex pipiens pallens is at least 80%.

With `CC1(C)CC(NC(=O)c2cc(COCc3ccccc3)on2)CCO1` (stereo not shown) [(335), N-(2,2-dimethyltetrahydropyran-4-yl)-5-benzyloxymethylisoxazole-3-carboxamide], the pest or weed control at 500 ppm in the test on Musca domestica was at least 90%. Also, in the test on Culex pipiens pallens, the pest or weed control at 0.1 % strength is at least 80%.

Consider `O=C(NCC1CCOC1)c1cc(COCc2ccc3sccc3c2)on1` (stereo not shown) [(336), N-(tetrahydrofuran-3-ylmethyl)-5-[(5-benzothiophenyl)methoxymethyl]isoxazole-3-carboxamide], for which the pest or weed control at 0.1 % strength in the test on Blattella germanica and in the test on Culex pipiens pallens was at least 80% throughout.

As to `CCc1c(C(=O)NCC2CCOC2)noc1COCc1ccc2ccccc2c1` (stereo not shown) [(338), N-(tetrahydrofuran-3-ylmethyl)-5-(2-naphthylmethoxymethyl)-4-ethylisoxazole-3-carboxamide], the pest or weed control at 0.1 % strength with Blattella germanica and in the test with Culex pipiens pallens was at least 80% throughout.
